pEC50: −log10 of the molar value. Several values for one entry are separate records, joined by “and”; a condition that tells them apart may be missing. Identical values can stand only once. Like-named read-outs stand apart in the source and are kept apart here. Some results are limits rather than exact numbers.

In the assay the target is T1, FXR (Homo sapiens, UniProt Q96RI1).
T1 construct: using a full length FXR on a natural response element; expressed in transfected cells
T1 sequence (Q96RI1 1-486): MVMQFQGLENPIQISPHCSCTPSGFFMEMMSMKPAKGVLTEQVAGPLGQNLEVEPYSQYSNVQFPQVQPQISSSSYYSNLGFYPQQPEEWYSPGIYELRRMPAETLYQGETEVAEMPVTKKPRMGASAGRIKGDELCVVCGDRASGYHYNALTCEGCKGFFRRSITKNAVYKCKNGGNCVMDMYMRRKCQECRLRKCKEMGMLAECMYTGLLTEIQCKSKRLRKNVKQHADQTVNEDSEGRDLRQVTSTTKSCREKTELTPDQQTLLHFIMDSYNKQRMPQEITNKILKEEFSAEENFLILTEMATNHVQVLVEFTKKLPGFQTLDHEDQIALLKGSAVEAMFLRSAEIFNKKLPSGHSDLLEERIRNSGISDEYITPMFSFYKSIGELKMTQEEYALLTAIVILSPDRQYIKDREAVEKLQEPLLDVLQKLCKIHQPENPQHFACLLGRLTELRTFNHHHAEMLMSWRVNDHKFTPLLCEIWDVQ
Kind of assay: cell-based transcription assay, FXR responsive promoter linked to a luciferase reporter. On the set-up: RE: scale not given here. Particulars: for RE: RE not defined in the source. An excerpt:
In addition to ensuring that only cell permeable compounds were selected for further optimization, this approach allows for the detection of FXR activation in a natural system (i.e., correct folding of the protein and in the presence of a complete compliment of co-activators and co-repressors).
The feasibility of creating high throughput screens (XIS) for ORs was explored using FXR as a candidate orphan receptor (OR) with a known activator, chenodeoxycholic acid (CDCA) as a ligand. The screen is based on the co-transfection of a full-length receptor with the reporter vector containing a natural hormone response element under a minimal eukaryotic promoter. […] Using this 384-well format, the high throughput screening (HTS) approach to FXR as a candidate OR was employed. […] A central question in the feasibility studies is whether this library is suitable for screening for nuclear receptor ligands. Samples of this library were first reformatted into a 384-well format and then subjected to the FXR cell-based assays described above and assessed for FXR-mediated transcriptional activity. Cells were exposed to approximately 10 μM of sample for 18 hrs prior to washing and luciferase analysis.
EC50 values were determined with Prism 3.0 software via the activity of the subject compound in the previously described cell based assay.

Where [1] appears, read: Tables 1-15, FXR activation, cell-based reporter assay, read-out: EC50.
Where [2] appears, read: FXR activation, cell-based reporter assay, read-out: EC50.

For the molecule `COC(=O)/C=C/c1cccc(N(Cc2ccc3c(c2OC)OC(C)(C)[C@@H](OC(C)=O)[C@H]3OC(C)=O)C(=O)c2ccccc2)c1` (relative stereo) [Compound 95], the “FXR activation (in words)” value (cell-based reporter assay) was “Nor did the addition of H-bond acceptors such as in 89, 90, 95, 99 and 101 improve the ability of the parent compound 68 to activate FXR”.
In general, pEC50 refers to the negative decadic logarithm of the EC50, by convention in mol/L. `COC(=O)C=Cc1cccc(N(Cc2ccc(C=Cc3scnc3C)cc2)C(=O)NC(C)C)c1` [Compound 212]: under setting [1], the pEC50 is 6.45. For the setting “Tables 1-15”, the RE was determined as 0.42.
As for `COC(=O)/C=C/c1cccc(N(Cc2ccc3c(c2OC)OC(C)(C)C2C3C2(Cl)Cl)C(=O)c2ccccc2)c1` (stereo not shown) [Compound 102], the pEC50 under setting [2] was 6.48. The RE (Tables 1-15) is 0.64.
With `COC(=O)C=Cc1cccc(N(Cc2ccc(C=Cc3c(C)cc(C)cc3C)cc2)C(=O)C2CCCCC2)c1` [Compound 195], the pEC50 under setting [1] was 6.29. Moreover, the RE (Tables 1-15) stood at 0.24. The “FXR activation (in words)” value (cell-based reporter assay) is “among the least active”.
Take `COC(=O)C=Cc1cccc(N(Cc2ccc(C=Cc3cccc(Cl)c3)cc2)C(=O)C2CCCCC2)c1` [Compound 180]: the negative-log EC50 (pEC50) under setting [1] is 6.78. This molecule came in with an RE (Tables 1-15) of 1.41. The “FXR activation (in words)” value (cell-based reporter assay) is “excellent activity”.
As for `COC(=O)/C=C/c1cccc(N(Cc2ccc(/C=C/c3cccc(Cl)c3)cc2)C(=O)C(C)C)c1` [Compound 181], under setting [1], the pEC50 is 6.58. The molecule also showed an RE (Tables 1-15) of 1.09. Besides, where the note is “cell-based reporter assay”, the “FXR activation (in words)” value is on record as “excellent activity”.
For `CC(C)(C)OC(=O)C=Cc1ccc(CN(C(=O)C2CCCCC2)c2cccc(C=CCOc3ccccc3)c2)cc1` [Compound 138], under setting [1], the negative logarithm of the EC50 (pEC50) was 5.55. For the same molecule, for the setting “Tables 1-15”, the RE is 0.45.
Regarding `COC(=O)/C=C/c1cccc(N(Cc2ccccc2)Cc2ccc3c(c2OC)OC(C)(C)C=C3)c1` [Compound 78], the “FXR activation (in words)” value (cell-based reporter assay) was “inactive”.
Turning to `COC(=O)/C=C/c1cccc(N(Cc2ccc(-c3ccc(N(C)C)cc3)cc2)C(=O)NC(C)C)c1` [Compound 261], the pEC50 under setting [1] was 6.79. Further, the RE (Tables 1-15) stood at 1.01.
On to `COc1cc(CN(C(=O)Nc2ccccc2)c2ccccc2)cc2c1OC(C)(C)C=C2` [Compound 25], for which the pEC50 (library screening hits and leads, read-out: activity (EC50)) is 5.00 to 5.30.
Regarding `COC(=O)/C=C/c1cccc(N(Cc2ccc(-c3ccc(F)c(Cl)c3)cc2)C(=O)C(C)C)c1` [Compound 248], the pEC50 under setting [1] is 6.89. The molecule further returned an RE (Tables 1-15) of 1.64.
Turning to `COC(=O)/C=C/c1cccc(N(Cc2cccc(OC)c2)C(=O)C2CCCCC2)c1` [Compound 115], the negative logarithm of the EC50 (pEC50) under setting [1] was less than 6.00. The same molecule displayed an RE (Tables 1-15) of 0.11.
Take `COC(=O)/C=C/c1cccc(N(Cc2ccc(-c3ccc(C)cc3)cc2)C(=O)NC(C)C)c1` [Compound 237]: the negative logarithm of the EC50 (pEC50) under setting [1] is 6.35. For the setting “Tables 1-15”, the RE was 0.80.
For the molecule `COC(=O)/C=C/c1cccc(N(Cc2ccc(/C=C/c3cccc(F)c3)cc2)C(=O)C(C)C)c1` [Compound 202], the pEC50 under setting [1] was 7.15. In addition, the RE (Tables 1-15) turned out to be 1.33. In addition, the “FXR activation (in words)” value (cell-based reporter assay) is “excellent activity”.
With `COC(=O)/C=C/c1cccc(N(Cc2ccc(-c3cccc(OC(F)(F)F)c3)cc2)C(=O)C2CCCCC2)c1` [Compound 253], the pEC50 under setting [1] was 6.38. The RE (Tables 1-15) is reported as 0.84.
For the molecule `COC(=O)/C=C/c1cccc(N(Cc2ccc(/C=C/C(=O)OC(C)(C)C)cc2)C(=O)c2ccco2)c1` [Compound 144], the pEC50 under setting [2] was 6.60 to 6.90 and 6.63 to 6.69; the pEC50 under setting [1] was 6.69. Under “Tables 1-15”, the RE is 1.93.
For `COC(=O)C=Cc1cccc(N(Cc2ccc(-c3ccc(C(C)=O)s3)cc2)C(=O)C2CCCCC2)c1` [Compound 129], the negative-log EC50 (pEC50) was 6.59 under setting [2] and 6.59 under setting [1]. Besides, the RE (Tables 1-15) was found to be 1.48.
Take `COC(=O)/C=C/c1cccc(N(Cc2ccc(-c3c(OC)cccc3OC)cc2)C(=O)C(C)C)c1` [Compound 257]: the pEC50 under setting [1] is 7.02. Besides, the RE (Tables 1-15) was 0.10. Under “cell-based reporter assay”, the “FXR activation (in words)” value is “excellent activity”.

These data come from patent publication US20060223879A1, “Non-steroidal farnesoid x receptor modulators” (priority 2002, published 2006).
